Entries after “also recorded” stand apart in the source; their conditions may differ. Where no end group is shown, it is not given here.
Tests used:
[1] = tested on: O2−. generated by xanthine plus xanthine oxidase; assay: Inhibition of O2−. generated by xanthine-xanthine oxidase in vitro (SOD mimetic activity, lucigenin chemiluminescence); type: biochemical; conditions: for Maximum inhibition, %: O2−. generated by xanthine-xanthine oxidase in vitro, means ± SE, 5 studies; for O2−. generated by a xanthine-xanthine oxidase reaction extinguished: tested in PBS at 10^−4 M
Protocol: (§1) The SOD activities of Ns were evaluated in vitro for their efficacy in dampening O2^−. generated by xanthine (25 μmol/l) plus xanthine oxidase (9 IU/ml). Their lipid solubility was assessed by shaking the Ns in a 50:50 mixture of PBS (Ambion, Austin, Tex.) and chloroform (CHCl3; EM Science, Gibbstown, N.J.), taking an aliquot of the PBS phase, evaporating the CHCl3phase to dryness, reconstituting it in PBS, and assessing the SOD activities in the two solutions. O2^−. was assessed by chemiluminescence with 5 μM lucigenin (AutoLumatPlus LB 953; EG&G, Berthold, Germany). The reduction in the stable peak value for chemiluminescence for each N, relative to vehicle, defined the SOD mimetic activity.
SOD activity by the nitroxides was assessed in vitro (Table 1). […] The ratio of the activity that partitioned into CHCl3 compared with PBS was examined.

[2] = tested on: spontaneously hypertensive rat (SHR); assay: Acute antihypertensive response (MAP, HR) to graded intravenous doses in anesthetized SHR; type: in vivo; conditions: for acute change in MAP and HR: graded intravenous doses (nitroxides 17-270 μmol/kg; SOD 34-540 U/kg); for ED50 (sensitivity) for changes in MAP and HR: intravenous
Protocol: Experiments were approved by the Georgetown University Animal Care and Use Committee. Male SHR weighing 250-350 g (Taconic, Germantown, N.Y.) were anesthetized with thiobutabarbital (Inactin; Sigma, St. Louis, Mo.) (10 mg/100 g) after halothane (Halocarbon Laboratories, River Edge, N.J.) induction. Rats received 0.9% NaCl at 2 ml/h IV up to the time of receiving drugs to maintain euvolemia. A femoral artery was cannulated with polyethelene (PE)-50 tubing connected to a digital blood pressure analyzer (Micro-Med, Louisville, Ky.). Animals were equilibrated for 45 min. Thereafter, a nitroxide (17 μmol/kg) was infused intravenously over 10 s. The mean arterial pressure (MAP) and heart rate (HR) were recorded over the first 5 min and at 10 and 15 min. This was followed by doses of 54, 72, 174, and 270 μmol/kg under similar conditions. The same protocol was followed with each nitroxide: T, 4-oxo-tempo (OT), 4-amino-tempo (AT), 3-carboxy-peroxyl (3-CTPY) (Aldrich, Milwaukee, Wis.), 3-carbomyl-proxyl (3-CP) (Sigma), and 4-trimethylammonium-2,2,6,6,-tetramethylpiperidine-1-oxyl iodide (CAT-1) (Molecular Probes, Eugene, Oreg.) (FIG. 3). Doses of bovine Cu/Zn SOD (MW 32,500; Oxis Research, Portland, Oreg.) were selected that had equivalent SOD mimetic activity in vitro to the doses of T used for intravenous studies: 34, 110, 140, 260, 350, and 540 U/kg. SOD injection followed a similar protocol to the nitroxides and was compared with vehicle-injected rats. Additional rats received injections of previously boiled SOD as a further control group. Six rats were studied in each group.
The mean±SE changes in MAP and HR were calculated from the individual dose-response relations. The responsiveness was the maximum effect, and the sensitivity was the expected dose for ED50. Data were analyzed by ANOVA with post hoc testing by the Dunnett test, where appropriate. Statistical significance was taken as P<0.05.

[3] = tested on: mesenteric resistance arteries (MRAs) from EC-SOD −/− and +/+ mice; assay: Contraction of isolated mesenteric resistance arteries (myograph)
Protocol: FIG. 19: Responses of mouse isolated mesenteric resistance vessles to endothelin-1: comparison of EC-SOD +/+ with −/−. (A) Contraction to endothelin-1, (B) Superoxide production with endothelin-1. Mean±SEM values (n=6-8 per group). Response to endothelin-1 in vessels incubated for 20 min with vehicle, tempol (10^−4 M), PEG-SOD (100 units·ml^−1), and catalase (300 units·ml^−1). Compared to vehicle, ***, p<0.005.
(§2) Reactive oxygen spice (ROS) and endothelin-1 (ET-1) contribute to angiotensin-induced hypertension. We used isolated mesenteric resistance arteries (MRAs) from EC-SOD knockout (−/−) mice (n=10) and EC-SOD wild type (+/+) mice (n=10), as a model to investigate the hypothesis that microvascular ET-1 and superoxide anion (O2.^−) interact to enhance contractility. Tension and O2.^− were quantitated in real time in dihydroethidium (DHE)-loaded MRAs in a myograph equipped with a dual-emission photon detection fluorescence system to measure ethidium (Eth): DHE ratio (E/D) as a direct readout of O2.^− activity. […] PEG-SOD normalized augmented ET-1 contraction (64±4% vs 71±3%; p=ns) and prevent an increase in E/D ratio in MRAs from −/− (0.6±0.5 vs 0.5±0.8, p=ns). In summary, ET-1 generates microvascular O2.^− that enhances its vasoconstrictive action.

[4] = tested on: mesenteric resistance arteries (MRAs) from EC-SOD −/− and +/+ mice; assay: Superoxide as ethidium:DHE ratio (E/D) in dihydroethidium-loaded mesenteric resistance arteries
Description: as §2
A current study contrasts the responses to endothelin-1 (ET-1) in mesenteric resistance vessels from EC-SOD (−/−) and (+/+) mice. […] Parallel studies of vascular superoxide in dihydroethidium-loaded vessels show enhanced conversion to ethidium, indicating enhanced superoxide formation, in vessels from EC-SOD −/−mice. […] We conclude that in the model system of SOD deficiency caused by gene deletion of EC-SOD in the mouse, tempol can correct enhanced contractions and enhanced oxidative stress. It is thereby envisioned as being effective in preventing hypertension and cardiovascular disease.

[5] = Lipid solubility: partition of SOD activity between CHCl3 and PBS; type: physicochemical; conditions: 50:50 PBS and chloroform
Protocol: as §1

[6] = measured previously in the literature; cited from earlier work
[7] = cited from earlier work
EC-SOD +/+ and −/− mice [8] = assay: MAP of conscious mice by telemetry during subcutaneous Ang II infusion; type: in vivo, mouse; conditions: for MAP during Ang II infusion: 400 ng/kg per minute subcutaneously, 2 weeks; for Change in MAP with Ang II (mmHg) / MAP on day 12 of Ang II (mmHg): conscious, telemetry
Description: For the first series, mice were instrumented with indwelling radiotelemeters (DSI) connected to a cather in a carotid artery and placed within the abdomen 2 weeks before placement of osmotic minipumps as described previously (Kawada N, et al. 2002 J Am Soc Nephrol 13 :2860-2868). Mice were anesthetized with isoflurane (1.0 to 1.5% in 100% O2) before insertion of telemeters and allowed to recover from the surgery for 12 days before the start of BP recording. Basal recordings of MAP and heart rate (HR) were measured continuously by telemetry for 3 days. Thereafter, mice were anesthetized with isoflurane for insertion of osmotic minipumps (Direct Corp) to deliver Ang II (400 ng^−1 kg^−1 per minute) or vehicle (Veh) subcutaneously for 2 weeks. An additional group received a higher pressor rate of Ang II infusion (1000 ng/kg^−1 min^−1, SC). The mean values for 24-hour periods are reported. For subsequent series, mice were prepared without placement of telemeters and Ang II was infused only at the slow pressor rate.

EC-SOD +/+ and −/− mice [9] = assay: MAP of anesthetized mice (direct arterial cannulation) during Ang II infusion; type: in vivo, mouse; conditions: 400 ng·kg^−1·min^−1
Protocol: Cannulae were placed in the jugular vein (for infusion of fluids and renal function markers), the femoral artery (for direct measurement of MAP and HR), and the bladder (for the collection of urine). A tracheostomy was performed to permit free, uninterrupted respiration of room air. [^3H]-Inulin was infused at 0.1 μCi^−1 hr^−1 for the measurement of glomerular filtration rate. [^14C]-Para-amino hippurate (PAH) was infused at 0.2 μCi^−1 hr^−1. Blood was collected from the femoral artery and renal vein at the end of the collection period to measure hematocrit and renal PAH extraction. Renal plasma flow (RPF) was calculated from the clearance of PAH factored by its renal extraction. Renal blood flow was calculated from RPF factored by (1-hematocrit). Renal vascular resistance (RVR) was calculated from MAP factored by RBF. In separate groups, plasma was obtained, and the aorta and kidneys were harvested and prepared for further analysis.

cell membranes = conditions: cited from earlier work
[10] = EC-SOD (+/+), 400 ng·kg^−1·min^−1
[11] = EC-SOD (+/+), 1000 ng·kg^−1·min^−1
[12] = EC-SOD (−/−), 400 ng·kg^−1·min^−1
[13] = EC-SOD (−/−), 1000 ng·kg^−1·min^−1

For `CC1(C)CC(C(N)=O)C(C)(C)N1[O]` (stereo not shown) [Compound 3-CP, 3-carbomoyl-proxyl], the “Maximum inhibition, %” value [1] was 82 ± 1 %, the “O2−. generated by a xanthine-xanthine oxidase reaction extinguished” value (“O2−. generated” below) [1] was “significantly lower fraction” and the “acute change in MAP and HR” value [2] was “ineffective; also recorded: did not; also recorded: does not reduce BP in vivo”.
For “endothelin-1 (CSCSSLMDKECVYFCHLDIIW; ends and bridges not checked; cysteine pairing not given here; UniProt P05305 53-73, looked up) [ET-1, vasoconstrictor peptide used to contract mesenteric resistance arteries]”, the ET-1 induced contraction ([3]; MRAs from EC-SOD +/+ mice) was 66±5%, the ET-1 induced contraction ([3]; MRAs from EC-SOD −/− mice) was 100±3% and the “E/D ratio (ethidium:DHE) with ET-1” value ([4]; MRAs from EC-SOD +/+ mice) was 0.5±0.8. For the same compound, the “E/D ratio (ethidium:DHE) with ET-1” value ([4]; MRAs from EC-SOD −/− mice) was 3.7±0.5.
With `CNC[C@H](O)c1cccc(O)c1` [Phenylephrine] the “Phenylephrine-induced contractions, EC-SOD −/− versus +/+” value ([3]; MRAs from both groups) was “similar” and the “E/D ratio with phenylephrine” value ([4]; MRAs from both groups) was “did not change”.
With `CC1(C)CC(=O)CC(C)(C)N1[O]` [OT, 4-oxo-tempo] the “Maximum inhibition, %” value [1] was 62 ± 2 %, the “O2−. generated” value [1] was “significantly lower fraction” and the “ratio of the activity that partitioned into CHCl3 compared with PBS (partition ratio)” value [5] was “greatest partition ratio”. For the same compound, the “redox midpoint potential E1/2” value [6] was 913 mV, the “maximal reduction in MAP (comparison between compounds)” value (from here on “maximal reduction in MAP”) ([2]; graded intravenous doses) was “significantly more modest reductions” and the “reduction in HR (comparison between compounds)” value ([2]; graded intravenous doses) was “smaller”. For the same compound, the “acute change in MAP and HR” value [2] was “graded reductions; also recorded: decreased MAP and HR acutely” and the “ED50 (sensitivity) for changes in MAP and HR” value (shortened to “ED50 (sensitivity) for changes”) [2] was “highest ED50s”.
For “Cu/Zn SOD: bovine Cu/Zn SOD (MW 32,500; Oxis Research)”, the “injected SOD associated with the kidney” value ([7]; 45 min after injection) is given as roughly 10%, the plasma half time ([7]; after intravenous administration) is given as 6 min and the “delay of MAP lowering versus vehicle” value ([2]; graded intravenous doses) is given as 90 to 110 min. For the same compound, the “acute change in MAP and HR” value ([2]; listed as SOD) was “no acute effect; also recorded: did not”.
In the case of `CC1(C)CC(N)CC(C)(C)N1[O]` [AT, 4-amino-2,2,6,6-tetramethylpiperidine-1-oxyl], the “Maximum inhibition, %” value [1] is listed as 88 ± 2 %, the “O2−. generated” value [1] is listed as 88% and the “redox midpoint potential E1/2” value [6] is listed as 820 mV. For the same compound, the “maximal reduction in MAP” value ([2]; graded intravenous doses) was “greatest reductions in MAP”, the “acute change in MAP and HR” value [2] was “graded reductions; also recorded: decreased MAP and HR acutely” and the “ED50 (sensitivity) for changes” value [2] was “highest ED50s”.
In the case of “angiotensin II (DRVYIHPF; Angiotensin-2; UniProt P01019 25-32, looked up) [Ang II, pressor peptide infused subcutaneously by osmotic minipump]”, the “MAP during Ang II infusion” value (EC-SOD +/+ and −/− mice [8]; EC-SOD +/+) is reported as 125±3 mm Hg, the “MAP during Ang II infusion” value (EC-SOD +/+ and −/− mice [8]; EC-SOD −/−) is reported as 124±3 mm Hg and the “Change in MAP with Ang II (mmHg)” value (EC-SOD +/+ and −/− mice [8]; [10]) is reported as “+24.4 ± 3.45 mmHg”. The “MAP on day 12 of Ang II (mmHg)” value (EC-SOD +/+ and −/− mice [8]; [10]) was 134.6 ± 3.3 mmHg, the “Change in MAP with Ang II (mmHg)” value (EC-SOD +/+ and −/− mice [8]; [11]) was “+35.7 ± 6.5 mmHg” and the “MAP on day 12 of Ang II (mmHg)” value (EC-SOD +/+ and −/− mice [8]; [11]) was 149.1 ± 4.3 mmHg. For the same compound, the “Change in MAP with Ang II (mmHg)” value (EC-SOD +/+ and −/− mice [8]; [12]) was “+16.7 ± 4.42 mmHg”, the “MAP on day 12 of Ang II (mmHg)” value (EC-SOD +/+ and −/− mice [8]; [12]) was 132.5 ± 4.1 mmHg and the “Change in MAP with Ang II (mmHg)” value (EC-SOD +/+ and −/− mice [8]; [13]) was “+30.7 ± 3.3 mmHg”. The “MAP on day 12 of Ang II (mmHg)” value (EC-SOD +/+ and −/− mice [8]; [13]) was 149.9 ± 5.4 mmHg, the “MAP on day 12 of Ang II (mmHg)” value (EC-SOD +/+ and −/− mice [9]; EC-SOD (+/+)) was 92.1 ± 3.0 mmHg and the “MAP on day 12 of Ang II (mmHg)” value (EC-SOD +/+ and −/− mice [9]; EC-SOD (−/−)) was 98.4 ± 2.6 mmHg.
In the case of `CC1(C)CC([N+](C)(C)C)CC(C)(C)N1[O].[I-]` [CAT-1, 4-trimethylammonium-2,2,6,6,-tetramethylpiperidine-1-oxyl iodide], the permeation of cells (cell membranes) is given as “does not permeate cells”, the “Maximum inhibition, %” value [1] is given as 42 ± 2 % and the “O2−. generated” value [1] is given as “significantly lower fraction”. For the same compound, the “redox midpoint potential E1/2” value [6] was “significantly higher values still”, the “maximal reduction in MAP” value ([2]; graded intravenous doses) was “significantly more modest reductions” and the “acute change in MAP and HR” value [2] was “graded reductions; also recorded: decreased MAP and HR acutely”. The “ED50 (sensitivity) for changes” value [2] was “lowest ED50”.
